Measured values taken from US20030171276A1, “Preventives and remedies for chronic hepatitis” (priority 1999, published 2003).

Tested on: recombinant E2 protein binding to CD81 expressed in Jurkat cells
Assay: Inhibition of binding of recombinant E2 protein to Jurkat cells (FACScan)
Assay type: cell-based, HCV
Conditions: 1 μg recombinant E2 protein preincubated with 10 μL of 1 mg/mL solution, room temperature 1 hour; FIG. 14
Experimental: An oligopeptide capable of binding to HCV E2 antigen is reacted with the HCV E2 antigen to study whether or not binding of CD81 expressed in Jurkat cells purchased from DAINIPPON PHARMACEUTICAL CO., LTD. to the HCV E2 antigen is inhibited. By the study, whether or not the selected oligopeptide inhibits adhesion of the HCV E2 antigen to CD81-positive cells can be estimated. The inhibitory activity for adhesion of CD81 to the IICV E2 antigen was assayed in accordance with the literature. The concrete description will be given hereinbelow.
The Jurkat cells were prepared in the same manner as in item (1), and suspended in WB so as to have a concentration of 4×10^6 cells/mL, to give a Jurkat cell suspension. […]
Hereinafter, in the same manner as in the item (1) above, the resulting product was reacted with an FITC-labeled anti-mouse IgG1 antibody, and thereafter the reaction mixture was suspended in 0.2 mL of a 10% neutral buffered formalin solution. As to the resulting product, E2 protein bound to Jurkat cells was analyzed by using FACScan.
One microgram of the recombinant E2 protein, and 10 μL of the TAPA148, bLF or bLF443 solution obtained in item (4) above were added to a 6 mm rounded-bottom tube and, and WB was then added thereto, to give 50 μL of a mixture. […] As to the resulting suspension, E2 protein bound to Jurkat cells was analyzed by using FACScan.

With “TAPA148: Human CD81-derived peptide, SEQ ID NO: 23 (TFHETLDCCGSSTLTALTTSVLKNNLCPSGSNIISNLFKTDCHQKIDDLTSGK; Synthesized peptide TAPA148 which is derived from human CD81)” the “inhibitory action of binding of E2 protein to Jurkat cells” value was “inhibitory action of binding of E2 protein”.
“bLF443: Bovine lactoferrin-derived peptide, SEQ ID NO: 24 (LDCVLRPTEGYLAVAVVKKANEGLTWNSLKDKKSCH; Synthesized peptide bLF443 which is derived from bovine lactoferrin)” was tested, and the “inhibitory action of binding of E2 protein to Jurkat cells” value was “inhibitory action of binding of the E2 protein”.
